Several values for one entry are separate records, joined by “and”; a condition that tells them apart may be missing. Equal entries are not always repeated.
Experiment: Brain and plasma distribution after the 6 Hz assay (UHPLC-ESI-MS/MS)
Format: in vivo, mouse
Settings: 20 mg/kg IP, total concentration, sampled immediately after 6 Hz assay (one hour post dose)
Experimental: Pharmacological distribution and bioanalysis. Immediately following characterization of seizure behaviors in the 6 Hz assay, animals were humanely sacrificed and brain and plasma samples were collected for analysis of the distribution of the administered compounds to these tissue compartments.
Brain sample homogenization. Pre-weighed whole mouse brains were thawed and 1 mL of deionized water and 1 mL of acetonitrile were added to each sample vial containing brain tissue. The samples were homogenized using a hand-held Omni™ TH homogenizer (Omni International, Kennesaw, GA, USA) until a uniform slurry was obtained. 1 mL aliquots of the slurry were transferred to clean 1.5 mL plastic Eppendorf tubes and the tubes were centrifuged at 13,000 rpm (15,871×g) for 20 minutes. The supernatant was collected and stored in clean labelled plastic Eppendorf vials at −80° C.
Mouse plasma and brain homogenate sample preparation. Mouse brain homogenates and mouse plasma samples, as well as calibration standards and QC samples prepared from control (“blank”) untreated mouse plasma, were extracted by protein precipitation. Briefly, 50 μL of each brain homogenate and mouse plasma sample (as well as each calibration standard, QC sample and blank mouse plasma sample) was mixed with 50 μL of internal standard solution [a 2,500 ng/mL solution of (S)-5-((1-benzylpyrrolidin-3-yl)(methyl)amino)-6-methyl-N-(thiazol-4-yl)pyridine-2-sulfonamide in deionized water/acetonitrile (1:1 v/v)], followed by addition of 50 μL of 6% (v/v) phosphoric acid in water. This was followed by the addition of 200 μL of acetonitrile. The samples were vortexed for 30 seconds and then centrifuged for 20 min at 13,000 rpm (15,871×g). The supernatants were further diluted four-fold with acetonitrile:water (1:1 v/v) and transferred to a 96-well plate prior to analysis. Calibration and QC samples were prepared in blank K2EDTA mouse plasma in the concentration range from 2.3 ng/mL to 4800 ng/mL with QC samples, including low QC (14 ng/mL), mid QC (225 ng/mL), and high QC (3600 ng/mL).
UHPLC-ESI-MS/MS analysis. Samples were then analyzed by ultra-high pressure liquid chromatography/electrospray ionization tandem mass spectroscopy (UHPLC-ESI MS/MS) using a Sciex™ TQ-5500 (AB Sciex™ LP, Concord, ON, Canada) mass spectrometer equipped with a Shimadzu Nexera™ UHPLC pump, column compartment and auto-sampler (Shimadzu Scientific Instruments, Inc., Columbia, MD, USA), using a binary gradient elution starting with 80% water (A)/20% acetonitrile (B), both solvents containing 0.1% formic acid. After 0.6 minutes, mobile phase B was increased linearly to 100% to 1 minute and elution was maintained at 100% mobile phase B until 1.5 minutes, and then allowed to re-equilibrate at the initial ration of 80% mobile phase A and 20% mobile phase B for a total run time of 2.5 minutes at a flow rate of 0.4 mL/min. The column used was ACE Excel™ 2 C18-PFP (2.1 mm i.d.×[…], 2 μm particle size)(Advanced Chromatography Technologies Ltd, Aberdeen, Scotland). The analytes and the internal standard were ionized by electrospray in the positive ion mode and detected by multiple reaction monitoring (MRM) using the transitions listed in Table 1.

| SMILES | Brain concentration | Plasma concentration |
| --- | --- | --- |
| CCNC(C)Cc1cccc(C(F)(F)F)c1 (racemic) [(rac)-fenfluramine, (R/S)—N-ethyl-1-(3-(trifluoromethyl)phenyl)propan-2-amine] | 146.5 μM and 33870 ng/g | 10.74 μM and 2484 ng/g |
| CCN[C@H](C)Cc1cccc(C(F)(F)F)c1 [(R)-fenfluramine, (R)—N-ethyl-1-(3-(trifluoromethyl)phenyl)propan-2-amine] | 193.7 μM and 44797 ng/g | 15.02 μM and 3474 ng/g |

Reference: patent US12558326B2, “Method for treating epilepsy” (Xenon Pharmaceuticals Inc., priority 2018, dated 2026)
